Assay [1] concerns Plasmodium falciparum TM91C235. The assay is described as follows: In vitro antimalarial [3H]-hypoxanthine incorporation assay, TM91C235. The assay is classed as cell-based. The note with it: Plasmodium falciparum; P. falciparum TM91C235 (multiple drug resistant isolate), 72 hours exposure. The source says: (§1) The in vitro screens for intrinsic antimalarial activity were based on modifications of the procedures described by Desjardins R E, Canfield C J, Haynes J D, Chulay J D. (Quantitative assessment of antimalarial activity in vitro by a semiautomated microdilution technique. Antimicrob Agents Chemother. 1979 December; 16(6):710-8.), Chulay J D, Haynes J D, Diggs C L. (Plasmodium falciparum: Assessment of in vitro growth by [3H]hypoxanthine incorporation. Exp. Parasitol. 1983 55:138-146.), and Milhous W K, Weatherly N F, Bowdre J H, Desjardins R E. (In vitro activities of and mechanisms of resistance to antifol antimalarial drugs. Antimicrob Agents Chemother. 1985 April; 27(4):525-30.). The system was limited to the assessment of the intrinsic activity against the erythrocytic asexual life cycle (blood schizontocides). Two Plasmodium falciparum clones from CDC/Indochina III (W-2) and CDC/Sierra Leone I (D-6) (Oduola A M, Weatherly N F, Bowdre J H, Desjardins R E. Plasmodium falciparum: cloning by single-erythrocyte micromanipulation and heterogeneity in vitro. Exp Parasitol. 1988 66(1):86-95.) were used for all assays. TM91C235, a multiple drug resistant isolate from Thailand, was used for the prescreening assay. W-2 is resistant to chloroquine, quinine, and pyrimethamine and susceptible to mefloquine. D-6 tends to be more resistant to mefloquine and susceptible to chloroquine, quinine, and pyrimethamine. All documents cited in this paragraph are incorporated by reference in their entirety.
(§2) All parasites were maintained in continuous long term cultures in RPMI-1640 medium supplemented with 6% washed human A positive (A+)(erythrocytes, 25 mM Hepes, […], and 10% heat inactivated A+human plasma or ALBUMAX® (lipid-rich bovine serum albumin; Invitrogen, Carlsbad, Calif.). All cultures and assays were conducted at 37° C. under an atmosphere of 5% CO2 and 5% O2, with a balance of N2.
The prescreening assay uses TM91C235 diluted at a 0.4% parasitemia in a 1% hematocrit in folic acid free and p-aminobenzoic acid free media RPMI-1640 and ALBUMAX®. One mg of the compound is typically dissolved in 100 μl of dimethyl sulfoxide (DMSO). The compound is further diluted in culture medium (FF) with ALBUMAX® for the first initial starting concentration. The rest of the stock drug solution was kept at −70° C. The isolate was preexposed, in duplicate, at three concentrations (25,000 ng/ml, 2,500 ng/ml, and 25 ng/ml) of the test compound for 48 hr in a 96-well microtiter plate (MTP) using the BIOMEK® 2000 automated laboratory workstation. Each MTP contains chloroquine as control to assess the relative activity of the compound and to monitor the response of TM91C235.
(§3) After the preincubation, [^3H]-hypoxanthine was added to each well of the MTP. (The assay relies on the incorporation of radiolabeled hypoxanthine by the parasites, which indicates reproduction, and inhibition of isotope incorporation was attributed to activity of known or candidate antimalarial drugs). After 72 hr of total incubation time, the MTP were frozen to lyse the erythrocytes and parasites. The parasite DNA was recovered by harvesting the lysate onto glass-fiber filter plates using a Packard FilterMate™ Cell Harvester. The radioactivity was counted on a Packard TopCount™ microplate scintillation counter. The results were recorded as counts per minutes (CPM) per well at each drug concentration divided by the arithmetic mean of the CPM from the three untreated infection parasite control wells.
The serial dilution assay was conducted using the same assay conditions and stock solution of the compound used for the preliminary screen, described above. Both the D-6 and the W-2 clones were used. The compounds were diluted two-fold over 11 different concentration ranges with a starting concentration that was based on the preliminary screen. […]

The test system of assay [2] is Plasmodium falciparum clone CDC/Sierra Leone I (D-6). Kind of assay: In vitro antimalarial [3H]-hypoxanthine incorporation serial dilution assay, D6. The assay is classed as cell-based. The note with it: Plasmodium falciparum, D6, 72 h, P. falciparum D6, 72 hours exposure; read-out: IC50 D6.
Text: as §1, §2, §3
The serial dilution assay was conducted using the same assay conditions and stock solution of the compound used for the preliminary screen, described above. Both the D-6 and the W-2 clones were used. The compounds were diluted two-fold over 11 different concentration ranges with a starting concentration that was based on the preliminary screen. For each drug, the concentration response profile was determined and 50% inhibitory concentrations (IC50) were determined by using a non-linear, logistic dose response analysis program. […] For each assay, the IC50 for each clone was determined against the known antimalarials chloroquine and mefloquine. These control values established the compound's relative parasite susceptibility profile compared to known antimalarials. […]
The in vitro potency of the compounds has been compared with that of azithromycin to better gauge compounds suitable for further testing. As described above, parasites were exposed for 72 hours. Data from the in vitro potency tests of azithromycin against the three parasite strains have been averaged, and these numbers have been used for identification of “active” macrolide compounds.

Values after ≈ are worked out from the molar mass of the structure shown.

A word on the IC50: it is the concentration that gives 50% inhibition. Consider `CC[C@H]1OC(=O)[C@H](C)[C@@H](O[C@H]2C[C@@](C)(OC)[C@@H](O)[C@H](C)O2)[C@H](C)[C@@H](O[C@@H]2O[C@H](C)C[C@H](N(C)C)[C@H]2O)[C@](C)(O)C[C@@H](C)CN(CCCNC(=O)Nc2ccc(F)c(F)c2)[C@H](C)[C@@H](O)[C@]1(C)O.O=CO` [Example 76], for which the IC50 in assay [1] turned out to be 0.126 µg/mL; in assay [2] it was 0.298 µg/mL.
For the compound `CCOC(=O)CCN(CCCN1C[C@H](C)C[C@@](C)(O)[C@H](O[C@@H]2O[C@H](C)C[C@H](N(C)C)[C@H]2O)[C@@H](C)[C@H](O[C@H]2C[C@@](C)(OC)[C@@H](O)[C@H](C)O2)[C@@H](C)C(=O)O[C@H](CC)[C@@](C)(O)[C@H](O)[C@H]1C)C(=S)NCCc1ccccc1` [Example 160, 9-Deoxo-9-dihydro-9a-{N′-[β-(ethoxycarbonyl)ethyl]-N′-[β-(phenylethyl)thiocarbamoyl]-γ-aminopropyl}-9a-aza-9a-homoerythromycin A], the IC50 was 0.0683 µg/mL (≈ 0.0647 µM) in assay [1] and 0.153 µg/mL (≈ 0.145 µM) in assay [2].
For `CCOC(=O)CCN(CCCN1C[C@H](C)C[C@@](C)(O)[C@H](O[C@@H]2O[C@H](C)C[C@H](N(C)C)[C@H]2O)[C@@H](C)[C@H](O[C@H]2C[C@@](C)(OC)[C@@H](O)[C@H](C)O2)[C@@H](C)C(=O)O[C@H](CC)[C@@](C)(O)[C@H](O)[C@H]1C)C(=S)NCc1ccccc1` [Example 162, 9-Deoxo-9-dihydro-9a-{N′-[β-(ethoxycarbonyl)ethyl]-N′-benzylthiocarbamoyl-γ-aminopropyl]-9a-aza-9a-homoerythromycin A] the same measures were 0.0693 µg/mL (≈ 0.0665 µM) and 0.104 µg/mL (≈ 0.1 µM).
Taken in the same sequence, the figures for `CC[C@H]1OC(=O)[C@H](C)[C@@H](O[C@H]2C[C@@](C)(OC)[C@@H](O)[C@H](C)O2)[C@H](C)[C@@H](O[C@@H]2O[C@H](C)C[C@H](N(C)C)[C@H]2O)[C@](C)(O)C[C@@H](C)CN(CCCNC(=O)Nc2ccc(Cl)cc2)[C@H](C)[C@@H](O)[C@]1(C)O.O=CO` [Example 77] were 0.0896 µg/mL and 0.186 µg/mL.
As for `CC[C@H]1OC(=O)[C@H](C)[C@@H](O[C@H]2C[C@@](C)(OC)[C@@H](O)[C@H](C)O2)[C@H](C)[C@@H](O[C@@H]2O[C@H](C)C[C@H](N(C)C)[C@H]2O)[C@](C)(O)C[C@@H](C)CN(CCCNC(=O)Nc2ccc(C)cc2)[C@H](C)[C@@H](O)[C@]1(C)O` [Example 73], the values for the IC50 in assay [1] and in assay [2] were 0.128 µg/mL (≈ 0.139 µM) and 0.305 µg/mL (≈ 0.33 µM), respectively.
Taken in the same sequence, the figures for `CC[C@H]1OC(=O)[C@H](C)[C@@H](O[C@H]2C[C@@](C)(OC)[C@@H](O)[C@H](C)O2)[C@H](C)[C@@H](O[C@@H]2O[C@H](C)C[C@H](N(C)C)[C@H]2O)[C@](C)(O)C[C@@H](C)CN(CCCNC(=S)NC2CCCCCCCCCCC2)[C@H](C)[C@@H](O)[C@]1(C)O.O=CO` [Example 116] were 0.149 µg/mL and 0.281 µg/mL.
For `CC[C@H]1OC(=O)[C@H](C)[C@@H](O[C@H]2C[C@@](C)(OC)[C@@H](O)[C@H](C)O2)[C@H](C)[C@@H](O[C@@H]2O[C@H](C)C[C@H](N(C)C)[C@H]2O)[C@](C)(O)C[C@@H](C)CN(CCCNC(=S)Nc2ccc(OCc3ccccc3)cc2)[C@H](C)[C@@H](O)[C@]1(C)O.O=CO` [Example 115], the results for the IC50 in assay [1] and in assay [2] were 0.172 µg/mL and 0.269 µg/mL, respectively.
For the compound `CC[C@H]1OC(=O)[C@H](C)[C@@H](O)[C@H](C)[C@@H](O[C@@H]2O[C@H](C)C[C@H](N(C)C)[C@H]2O)[C@](C)(O)C[C@@H](C)CN(CCCN(CCC#N)C(=S)NCCc2ccccc2)[C@H](C)[C@@H](O)[C@]1(C)O` [Example 170], the IC50 in assay [1] worked out at 0.128 µg/mL (≈ 0.151 µM); in assay [2], 0.543 µg/mL (≈ 0.639 µM).
Taken in the same sequence, the figures for `CC[C@H]1OC(=O)[C@H](C)[C@@H](O[C@H]2C[C@@](C)(OC)[C@@H](O)[C@H](C)O2)[C@H](C)[C@@H](O[C@@H]2O[C@H](C)C[C@H](N(C)C)[C@H]2O)[C@](C)(O)C[C@@H](C)CN(CCCNC(=O)NC(C)(C)CC(C)(C)C)[C@H](C)[C@@H](O)[C@]1(C)O.O=CO` [Example 78] were 0.182 µg/mL and 0.267 µg/mL.
Taken in the same sequence, the figures for `CCOC(=O)CCN(CCCN1C[C@H](C)C[C@@](C)(O)[C@H](O[C@@H]2O[C@H](C)C[C@H](N(C)C)[C@H]2O)[C@@H](C)[C@H](O[C@H]2C[C@@](C)(OC)[C@@H](O)[C@H](C)O2)[C@@H](C)C(=O)O[C@H](CC)[C@@](C)(O)[C@H](O)[C@H]1C)C(=O)NC(C)c1cccc2ccccc12` (some centres unmarked) [Example 163] were 0.0679 µg/mL (≈ 0.0623 µM) and 0.135 µg/mL (≈ 0.124 µM).
Taken in the same sequence, the figures for `CCOC(=O)CCN(CCCN1C[C@H](C)C[C@@](C)(O)[C@H](O[C@@H]2O[C@H](C)C[C@H](N(C)C)[C@H]2O)[C@@H](C)[C@H](O[C@H]2C[C@@](C)(OC)[C@@H](O)[C@H](C)O2)[C@@H](C)C(=O)O[C@H](CC)[C@@](C)(O)[C@H](O)[C@H]1C)C(=S)NCCCc1ccccc1` [Example 161, 9-Deoxo-9-dihydro-9a-{N′-[β-(ethoxycarbonyl)ethyl]-N′-[γ-(phenylpropyl)thiocarbamoyl]-γ-aminopropyl}-9a-aza-9a-homoerythromycin A] were 0.054 µg/mL (≈ 0.0505 µM) and 0.142 µg/mL (≈ 0.132 µM).
With `CC[C@H]1OC(=O)[C@H](C)[C@@H](O[C@H]2C[C@@](C)(OC)[C@@H](O)[C@H](C)O2)[C@H](C)[C@@H](O[C@@H]2O[C@H](C)C[C@H](N(C)C)[C@H]2O)[C@](C)(O)C[C@@H](C)CN(CCCNC(=S)NC(c2ccccc2)c2ccccc2)[C@H](C)[C@@H](O)[C@]1(C)O` [Example 129], the IC50 in assay [1] was 0.056 µg/mL (≈ 0.055 µM); in assay [2], 0.222 µg/mL (≈ 0.218 µM).
For the compound `CC[C@H]1OC(=O)[C@H](C)[C@@H](O[C@H]2C[C@@](C)(OC)[C@@H](O)[C@H](C)O2)[C@H](C)[C@@H](O[C@@H]2O[C@H](C)C[C@H](N(C)C)[C@H]2O)[C@](C)(O)C[C@@H](C)CN(CCCNC(=O)Nc2cccc(SC)c2)[C@H](C)[C@@H](O)[C@]1(C)O` [Example 71], the IC50 in assay [1] amounted to 0.131 µg/mL (≈ 0.137 µM); in assay [2], 0.318 µg/mL (≈ 0.332 µM).
In the case of `CC[C@H]1OC(=O)[C@H](C)[C@@H](O[C@H]2C[C@@](C)(OC)[C@@H](O)[C@H](C)O2)[C@H](C)[C@@H](O[C@@H]2O[C@H](C)C[C@H](N(C)C)[C@H]2O)[C@](C)(O)C[C@@H](C)CN(CCCNC(=S)NCc2ccc3c(c2)CCC3)[C@H](C)[C@@H](O)[C@]1(C)O.O=CO` [Example 117], the IC50 in assay [1] was determined as 0.223 µg/mL; in assay [2], 0.329 µg/mL.
Taken in the same sequence, the figures for `CC[C@H]1OC(=O)[C@H](C)[C@@H](O[C@H]2C[C@@](C)(OC)[C@@H](O)[C@H](C)O2)[C@H](C)[C@@H](O[C@@H]2O[C@H](C)C[C@H](N(C)C)[C@H]2O)[C@](C)(O)C[C@@H](C)CN(CCCNC(=O)NCC2CCCCC2)[C@H](C)[C@@H](O)[C@]1(C)O` [Example 74] were 0.133 µg/mL (≈ 0.142 µM) and 0.568 µg/mL (≈ 0.609 µM).
`CC[C@H]1OC(=O)[C@H](C)[C@@H](O[C@H]2C[C@@](C)(OC)[C@@H](O)[C@H](C)O2)[C@H](C)[C@@H](O[C@@H]2O[C@H](C)C[C@H](N(C)C)[C@H]2O)[C@](C)(O)C[C@@H](C)CN(CCCNC(=O)Nc2cc(C(=O)OC)cc(C(=O)OC)c2)[C@H](C)[C@@H](O)[C@]1(C)O` [Example 72]: the IC50 in assay [1] turned out to be 0.422 µg/mL (≈ 0.411 µM); in assay [2], 0.665 µg/mL (≈ 0.648 µM).

These data come from patent US20080200404A1, “Novel Antimalarial 9A-Carbamoyl-Aminoalkyl and 9A-Thiocarbamoyl-Aminoalkyl Azalides” (priority 2005, published 2008).
